Laboratory results published in patent US20250255882A1, “TREATMENT OF CARDIAC CONDITION RELATED COGNITIVE DYSFUNCTION” (The Trustees of Columbia University in the City of New York, priority 2024, published 2025).

Assays:
MI mice [1] = assay: long-term potentiation (fEPSPs) in hippocampal slices; assay type: in vivo, mouse; conditions: slices from treated MI mice; MI decreased LTP versus SHAM
Experimental: (§1) FIG. 4A is a schematic representation of a hippocampal brain slice for LTP experiments and the positioning of the stimulating and recording electrodes.
Field excitatory postsynaptic potentials (fEPSPs) were evaluated at the Schaffer collateral using a bipolar electrode placed at the CA3 and recording at the CA1 (FIG. 4A). […] Importantly, MI and treatment with the various compounds after MI had no effect on basal synaptic transmission determined by the input-output curves (I-O; P=0.5; FIG. 4D).

[2] = system: mouse model of HF (myocardial infarction, MI); assay: open field test and elevated plus maze (EPM) test; assay type: in vivo; conditions: MI mice, treated
Excerpt: FIGS. 2A-2G illustrate a mouse model of heart failure (myocardial infarction) that is associated with cognitive dysfunction. […] One-way analysis of variance (ANOVA) was used to compare the difference between the six groups in FIGS. 2B, 2C, 2E and 2F. Tukey's test was used for multiple comparisons; two-way ANOVA was used in FIG. 2D. […] All statistical tests were two sided with the data derived from biologically independent samples.
Because of the complexity of the clinical manifestation of HF patients, the mouse model of HF (myocardial infarction, MI) was used with reduced ejection fraction to evaluate the mechanisms of CD. The open field test and elevated plus maze (EPM) test were used to evaluate the behavioral phenotypes, and spontaneous exploratory activity in the mice. In the open field test, mice were placed at the center of a chamber and allowed to explore for 6 min. […] In the EPM test, MI mice spent […] time in the open arms of the EPM (FIG. 2B) compared to SHAM (0.22±0.04 versus 0.14±0.02; P<0.05). […] As a control, the effects of a Rycal®, ARM036, was studied.

SNARE signaling pathway = assay: immunoblots of SNAP25, VAMP8, SYT2 and CPLX3 in hippocampi; assay type: in vivo, mouse; conditions: hippocampi of treated MI mice
Excerpt: FIGS. 7A-7E illustrate altered synaptic protein expression in heart failure. […] The color map represents fold change of proteins (log 2 scale). […] FIGS. 7B and 7C are immunoblots showing total expression of SNAP25, VAMP8, SYT2 and CPLX3, normalized to GAPDH in the hippocampi of controls (n=4) and individuals with HF (n=9). Individual values are shown with the mean±s.e.m. (t-test *P<0.05, control versus individuals with HF). […] Individual values are shown with the mean #s.e.m. […] Data are derived from biologically independent samples. All statistical tests were two sided.
Based on the proteome data in the setting of defective Ca^2+ regulation, four proteins were selected for further study. These four proteins were from the most enriched synaptic transmission pathways that are regulated by Ca^2+, located near the synaptic membranes, involved in learning and memory process, and involved in neurotransmission as potential downstream signals of leaky RyR2. These selections included synaptosomal-associated protein 25 (SNAP25), vesicle-associated membrane protein 8 (VAMP8), synaptogamin-2 (SYT2) and complexin3 (CPLX3). We analyzed their protein expression levels by immunoblot in individuals with HF, and in SHAM and MI mice with or without each of the aforementioned treatments. […]

MI mice [3] = assay: hippocampal FDG metabolism by microPET; assay type: in vivo, mouse; conditions: treated MI mice; percentage of the FDG uptake in the SHAM mice (SHAM 100±3, MI 70±3)
Excerpt: as §1
Thereafter, [^18F]fluorodeoxyglucose (FDG) with positron emission tomography (PET) was used to measure energy consumption in neurons, which reflects neuronal communication signals and the integrative local neuronal activity. Deteriorating brain glucose metabolism measured by FDG-PET has been used as a clinical marker for Alzheimer's disease diagnosis. Thus, hippocampal FDG metabolism was evaluated in the experimental groups (FIGS. 4E and 4F).

hippocampal RyR2 = target: T1, hippocampal RyR2 (Mus musculus, UniProt E9Q401); assay: SDS-PAGE analysis of modified RyR2 and calstabin2 immunoprecipitated from hippocampal RyR2 complex; assay type: in vivo; conditions: hippocampi of treated MI mice
T1 construct: Hippocampal RyR2 was immunoprecipitated and immunoblotted to detect PTMs; from tissue; host or cells: mouse hippocampus (SHAM / MI mice, treated in vivo)
T1 sequence (E9Q401 whole entry): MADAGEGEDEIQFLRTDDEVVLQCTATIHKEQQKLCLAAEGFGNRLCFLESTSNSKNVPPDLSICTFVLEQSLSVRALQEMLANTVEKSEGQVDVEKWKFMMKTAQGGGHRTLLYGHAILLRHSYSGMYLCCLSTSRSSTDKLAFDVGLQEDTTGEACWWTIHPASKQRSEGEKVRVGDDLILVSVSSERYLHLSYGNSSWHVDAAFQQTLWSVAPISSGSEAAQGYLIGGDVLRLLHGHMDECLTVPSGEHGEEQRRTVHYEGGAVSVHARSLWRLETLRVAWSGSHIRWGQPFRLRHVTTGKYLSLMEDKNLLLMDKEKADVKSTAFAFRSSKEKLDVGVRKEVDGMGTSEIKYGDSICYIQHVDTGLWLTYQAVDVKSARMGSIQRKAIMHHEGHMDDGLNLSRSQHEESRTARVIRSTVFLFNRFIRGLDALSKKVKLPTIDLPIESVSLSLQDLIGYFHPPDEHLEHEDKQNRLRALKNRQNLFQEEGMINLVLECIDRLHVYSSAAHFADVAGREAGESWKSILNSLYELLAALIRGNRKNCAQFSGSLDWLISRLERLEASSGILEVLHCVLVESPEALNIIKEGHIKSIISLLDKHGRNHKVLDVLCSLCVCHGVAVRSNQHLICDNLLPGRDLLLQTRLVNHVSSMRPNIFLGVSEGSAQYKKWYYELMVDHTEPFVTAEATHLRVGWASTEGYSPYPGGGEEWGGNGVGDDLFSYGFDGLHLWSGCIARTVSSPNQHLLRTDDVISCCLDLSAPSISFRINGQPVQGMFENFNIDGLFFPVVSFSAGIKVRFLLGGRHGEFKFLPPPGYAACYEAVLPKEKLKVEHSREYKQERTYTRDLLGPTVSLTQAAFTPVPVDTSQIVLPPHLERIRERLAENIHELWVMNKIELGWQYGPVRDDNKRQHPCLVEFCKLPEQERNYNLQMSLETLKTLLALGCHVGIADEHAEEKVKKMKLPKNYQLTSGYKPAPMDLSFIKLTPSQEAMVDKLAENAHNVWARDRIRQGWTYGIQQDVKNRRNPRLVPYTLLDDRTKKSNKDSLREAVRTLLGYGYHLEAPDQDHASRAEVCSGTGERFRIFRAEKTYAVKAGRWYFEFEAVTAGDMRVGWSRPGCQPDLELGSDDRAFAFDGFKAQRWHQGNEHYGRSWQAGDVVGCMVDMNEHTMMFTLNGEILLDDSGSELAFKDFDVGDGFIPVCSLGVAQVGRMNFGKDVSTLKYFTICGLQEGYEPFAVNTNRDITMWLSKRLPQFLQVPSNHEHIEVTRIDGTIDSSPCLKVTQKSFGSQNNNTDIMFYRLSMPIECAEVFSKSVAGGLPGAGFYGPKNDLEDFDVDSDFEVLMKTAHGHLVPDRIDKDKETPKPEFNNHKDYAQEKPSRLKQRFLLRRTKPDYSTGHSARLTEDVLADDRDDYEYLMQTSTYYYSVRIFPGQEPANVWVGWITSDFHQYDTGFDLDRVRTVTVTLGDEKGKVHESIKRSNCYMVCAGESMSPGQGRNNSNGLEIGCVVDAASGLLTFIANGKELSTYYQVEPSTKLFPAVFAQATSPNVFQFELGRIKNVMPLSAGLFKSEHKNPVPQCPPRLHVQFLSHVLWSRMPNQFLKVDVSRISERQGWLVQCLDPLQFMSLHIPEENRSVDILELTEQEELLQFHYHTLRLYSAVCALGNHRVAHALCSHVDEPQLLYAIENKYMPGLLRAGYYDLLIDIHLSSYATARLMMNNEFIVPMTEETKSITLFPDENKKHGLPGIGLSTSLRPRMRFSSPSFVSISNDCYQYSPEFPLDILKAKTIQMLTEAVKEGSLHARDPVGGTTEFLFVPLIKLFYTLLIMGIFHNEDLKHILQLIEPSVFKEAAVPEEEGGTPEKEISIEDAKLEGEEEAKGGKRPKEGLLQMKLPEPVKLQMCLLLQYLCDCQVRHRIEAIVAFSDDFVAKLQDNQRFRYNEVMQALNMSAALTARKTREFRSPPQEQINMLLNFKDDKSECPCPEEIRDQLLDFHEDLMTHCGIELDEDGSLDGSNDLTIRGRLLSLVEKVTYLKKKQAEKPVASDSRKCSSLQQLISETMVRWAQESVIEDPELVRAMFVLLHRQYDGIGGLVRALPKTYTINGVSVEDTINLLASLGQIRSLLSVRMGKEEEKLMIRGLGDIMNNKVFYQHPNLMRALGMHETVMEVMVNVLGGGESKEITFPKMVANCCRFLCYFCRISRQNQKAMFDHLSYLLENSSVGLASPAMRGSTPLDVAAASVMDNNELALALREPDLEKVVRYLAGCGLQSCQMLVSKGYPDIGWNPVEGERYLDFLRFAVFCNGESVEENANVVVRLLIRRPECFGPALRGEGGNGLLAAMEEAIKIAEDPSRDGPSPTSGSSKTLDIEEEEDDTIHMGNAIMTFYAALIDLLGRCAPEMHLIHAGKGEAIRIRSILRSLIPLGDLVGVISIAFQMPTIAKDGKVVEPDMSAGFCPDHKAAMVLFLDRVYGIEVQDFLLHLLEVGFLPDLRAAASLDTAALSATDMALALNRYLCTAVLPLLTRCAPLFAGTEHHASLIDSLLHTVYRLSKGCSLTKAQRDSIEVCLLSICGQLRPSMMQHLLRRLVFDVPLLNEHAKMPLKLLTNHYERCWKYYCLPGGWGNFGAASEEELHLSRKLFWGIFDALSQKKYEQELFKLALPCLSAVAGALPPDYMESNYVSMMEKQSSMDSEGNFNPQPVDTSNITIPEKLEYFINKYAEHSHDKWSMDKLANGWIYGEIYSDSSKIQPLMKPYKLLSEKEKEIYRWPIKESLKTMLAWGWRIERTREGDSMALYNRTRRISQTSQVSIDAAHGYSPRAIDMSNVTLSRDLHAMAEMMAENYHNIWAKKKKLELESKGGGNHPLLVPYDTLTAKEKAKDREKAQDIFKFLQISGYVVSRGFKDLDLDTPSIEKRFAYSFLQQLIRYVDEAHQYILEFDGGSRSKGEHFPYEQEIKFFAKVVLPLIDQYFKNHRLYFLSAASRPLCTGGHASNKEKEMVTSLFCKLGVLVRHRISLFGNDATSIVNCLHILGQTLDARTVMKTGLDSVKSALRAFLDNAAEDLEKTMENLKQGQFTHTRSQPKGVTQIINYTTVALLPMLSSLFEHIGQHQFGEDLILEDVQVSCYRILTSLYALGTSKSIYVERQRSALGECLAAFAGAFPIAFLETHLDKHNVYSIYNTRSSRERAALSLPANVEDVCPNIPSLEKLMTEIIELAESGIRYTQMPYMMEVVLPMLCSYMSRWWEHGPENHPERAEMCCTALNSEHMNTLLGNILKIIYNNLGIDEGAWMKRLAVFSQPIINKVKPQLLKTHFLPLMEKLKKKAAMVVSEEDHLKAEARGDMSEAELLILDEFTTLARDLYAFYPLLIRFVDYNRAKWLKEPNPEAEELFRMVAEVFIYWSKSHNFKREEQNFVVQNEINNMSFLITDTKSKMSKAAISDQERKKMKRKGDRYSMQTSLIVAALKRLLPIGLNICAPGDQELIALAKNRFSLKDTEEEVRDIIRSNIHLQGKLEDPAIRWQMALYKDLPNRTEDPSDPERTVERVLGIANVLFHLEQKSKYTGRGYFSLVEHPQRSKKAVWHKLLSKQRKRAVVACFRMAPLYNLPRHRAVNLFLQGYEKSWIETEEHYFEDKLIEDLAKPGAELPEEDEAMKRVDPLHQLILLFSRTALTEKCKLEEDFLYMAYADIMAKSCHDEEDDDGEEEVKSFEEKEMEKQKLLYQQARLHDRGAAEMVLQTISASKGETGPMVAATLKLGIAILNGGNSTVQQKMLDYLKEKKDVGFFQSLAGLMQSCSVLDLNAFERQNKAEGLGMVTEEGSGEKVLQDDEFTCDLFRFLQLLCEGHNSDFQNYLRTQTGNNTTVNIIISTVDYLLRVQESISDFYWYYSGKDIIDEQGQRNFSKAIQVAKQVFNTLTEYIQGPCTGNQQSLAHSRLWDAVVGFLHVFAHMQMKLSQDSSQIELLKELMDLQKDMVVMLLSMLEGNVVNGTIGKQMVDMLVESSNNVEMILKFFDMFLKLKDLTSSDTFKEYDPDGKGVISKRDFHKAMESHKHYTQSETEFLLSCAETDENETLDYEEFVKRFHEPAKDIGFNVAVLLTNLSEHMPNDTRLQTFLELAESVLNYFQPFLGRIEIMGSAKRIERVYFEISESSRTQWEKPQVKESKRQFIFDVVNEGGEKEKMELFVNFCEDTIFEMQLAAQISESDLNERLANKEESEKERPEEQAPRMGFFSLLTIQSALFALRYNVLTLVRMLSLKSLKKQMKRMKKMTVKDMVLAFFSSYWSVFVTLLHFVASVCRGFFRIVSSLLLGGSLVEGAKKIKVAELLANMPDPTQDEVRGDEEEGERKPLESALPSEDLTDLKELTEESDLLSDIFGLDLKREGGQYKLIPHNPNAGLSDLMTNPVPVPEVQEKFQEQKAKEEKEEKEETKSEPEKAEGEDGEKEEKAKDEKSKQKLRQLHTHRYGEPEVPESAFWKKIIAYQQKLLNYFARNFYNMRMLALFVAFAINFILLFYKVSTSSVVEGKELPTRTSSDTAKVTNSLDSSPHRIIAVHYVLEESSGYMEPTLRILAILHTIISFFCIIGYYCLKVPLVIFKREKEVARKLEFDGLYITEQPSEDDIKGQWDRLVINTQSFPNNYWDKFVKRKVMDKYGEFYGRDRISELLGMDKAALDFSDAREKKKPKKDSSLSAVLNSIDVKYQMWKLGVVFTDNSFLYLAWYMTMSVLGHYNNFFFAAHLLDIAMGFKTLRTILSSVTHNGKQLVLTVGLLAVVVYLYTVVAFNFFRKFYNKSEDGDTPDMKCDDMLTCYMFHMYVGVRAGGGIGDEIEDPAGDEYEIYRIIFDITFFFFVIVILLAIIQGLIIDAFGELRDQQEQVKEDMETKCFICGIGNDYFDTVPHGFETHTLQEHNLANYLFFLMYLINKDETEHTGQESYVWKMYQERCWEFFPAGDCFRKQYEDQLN
T1 sequence (Q9Z2I2 whole entry partner): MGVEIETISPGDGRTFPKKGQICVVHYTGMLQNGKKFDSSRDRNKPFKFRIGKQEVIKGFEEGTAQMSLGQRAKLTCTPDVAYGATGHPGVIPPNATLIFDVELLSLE
Experimental: FIGS. 3A-3G illustrate a mouse model of heart failure that is associated with leaky hippocampal RyR2. FIG. 3A is a cryogenic electron microscopy structure of RyR2 (gray, top and side view) showing the location of the Ser2808 in the RY3&4 phosphorylation domain (magenta) and calstabin2 (cyan). RyR2 PKA phosphorylation shifted the channel toward a primed state (yellow) 50.
PTMs and functional abnormalities of neuronal RyR2 in HF hippocampal samples from MI mice were then evaluated and compared them to SHAM. Hippocampal RyR2 was immunoprecipitated and immunoblotted to detect PTMs.

TGF-β pathway = assay: immunoblots of TGF-β, phosphorylated SMAD3 and NOX2 binding to RyR2 in hippocampi; assay type: in vivo, mouse; conditions: hippocampi of treated MI mice
Excerpt: FIG. 12A includes immunoblots showing expressing levels of TGF-β, phosphorylated SMAD3, total SMAD3, and NOX2 binding to RyR2 in the hippocampi of controls (n=4) and HF patients (n=9). FIG. 12B includes bar graphs depicting the ratio of TGF-β expression normalized to GAPDH, phosphorylated SMAD3 to total SMAD3 and NOX2 binding to RyR2 (IP RyR2). The same quantity of proteins was loaded on two separate gels and blotted separately for SMAD3 and pSMAD3. Individual values are shown with mean±SEM (t-test * p<0.05, Controls vs. HF patients). […] FIG. 12D includes bar graphs depicting the ratio of TGF-β expression normalized to GAPDH, phosphorylated SMAD3 to total SMAD3 and NOX2 binding to RyR2 (IP RyR2). The same quantity of proteins was loaded on two separate gels and blotted separately for SMAD3 and pSMAD3. Individual values are shown with mean±SEM. […] All statistical tests were two-sided. Data are derived from biologically independent samples.
TGF-β has been implicated in CNS disorders including Alzheimer's disease.

[4] = system: mouse model of HF (myocardial infarction, MI); assay: MWM test (long-term spatial learning and memory) with probe trial; assay type: in vivo; conditions: MI mice, treated; for target crossings / time spent in the target quadrant: 60-s probe trial day 5; for target crossings: MI 2.4±0.3, SHAM 4.6±0.3; for time spent in the target quadrant: MI 17±1 s, SHAM 25±2 s; for latency to find and reach the hidden platform: day 4 training trials, MI 30±1 s, SHAM 21±2 s
Experimental: One-way analysis of variance (ANOVA) was used to compare the difference between the six groups in FIGS. 2B, 2C, 2E and 2F. Tukey's test was used for multiple comparisons; two-way ANOVA was used in FIG. 2D. […] All statistical tests were two sided with the data derived from biologically independent samples.
A MWM test was performed to assess hippocampal-dependent long-term spatial learning and memory.
A probe trial was performed on day 5 of the MWM test.

Row | SMILES | LTP (hippocampal synaptic plasticity) (MI mice [1]) | abnormal behaviors in open field test (time center versus periphery) and EPM test (time open-arm versus closed-arm) [2] | expression of SNAP25, VAMP8, SYT2 and CPLX3 (SNARE signaling pathway) | hippocampal FDG metabolism (MI mice [3]) | RyR2 nitrosylation (hippocampal RyR2) | RyR2 oxidation (hippocampal RyR2) | RyR2 phosphorylation (hippocampal RyR2) | calstabin2 binding to RyR2 (hippocampal RyR2) | NOX2 binding to hippocampal RyR2 (TGF-β pathway) | TGF-β levels (TGF-β pathway) | phosphorylation of SMAD3 (TGF-β pathway) | target crossings [4] | time spent in the target quadrant [4] [s] | latency to find and reach the hidden platform [4] [s]
1 | Fc1ccc(Cl)cc1-c1nc(Nc2ccncc2)c2nccnc2n1 [SD-208] | prevented MI-induced LTP deficits | prevented | restored the expression of these proteins to the control levels | 138±22 | significantly decreased | significantly decreased | significantly decreased | enabled rebinding of calstabin2 | significantly reduced | significantly reduced | significantly reduced | 4.5±0.6 | 27 ± 2 | 15 ± 3
2 | CC(C)NCC(O)COc1cccc2ccccc12 (stereo not drawn) [propranolol] | prevented MI-induced LTP deficits | prevented | restored the expression of these proteins to the control levels | 145±26 | significantly reduced | – | significantly reduced | restored calstabin2 binding | significantly reduced | significantly reduced | significantly reduced | 3.5±0.6 | 26 ± 2 | 17 ± 3
